Measured values reported in patent US20130197069A1, “METHODS FOR TREATING STRESS INDUCED EMOTIONAL DISORDERS” (MASSACHUSETTS INSTITUTE OF TECHNOLOGY, priority 2007, published 2013).
“Also recorded” adds a separate entry of the source. Where no end group is shown, it is not given here.

Experiments:
Mice (Balb/c) [1] = test: Extinction of contextual freezing behavior after contextual fear conditioning; assay type: in vivo
Experimental: Animals: Mice (Balb/c, 12 weeks old) were housed under standard conditions with access to food and water ad libitum. All mice were purchased from Taconic (Germantown, N.Y.). Behavior testing was performed in a way that the mice were either housed in a separated compartment but within the testing room or different rooms were used for housing and testing. In the latter case the mice were brought to the testing room before the procedure. Although it appears that the dynamics of extinction behavior are somewhat variable depending on the employed behavior facility, the trends remain the same in different experiments. All experiments were approved by the corresponding Animal Use and Care Committee.
(§1) Extinction of contextual freezing behavior: Extinction and reminder shock procedures were performed as described before^6. In brief, mice were exposed to contextual fear conditioning (3 min context followed by at mild electric foot shock, 2 s, 0.7 mA). In some experiments a tone (30 s, 10 kHz, 75 dB SPL) was presented for 30 s before the shock. Extinction was performed on consecutive days. An extinction trial consisted of a 3 min re-exposure to the conditioning context.
Surgery/injection: Microcannula were purchased custom made from PlasticOne. The gauge of the guide and injection cannulae was 26 and 28, respectively. To insert cannulae into the dorsal hippocampus the coordinates AP −1.5 mm, lateral 1 mm, depth 2 mm were used as described before^18. To insert cannulae icy the coordinates AP +0.5 mm, lateral 1 mm, depth 2 mm were used. Butyrolactone I and roscovitine were dissolved and injected as described before^18. Rac-1 inhibitor was dissolved in aCSF and delivered bilaterally (0.5 μl/side) over a 1 min period. The correct localization of the cannulae was verified at the end of an experiment by methyleneblue injection. The cis-tronic Herpes Virus expressing GFP and dnPAK-1 or GFP alone was injected into the hippocampus bilaterally (0.5 μl/side) over a 2 min period. DnPAK-1 consisted of the DNA encoding amino acid 83-149 of PAK-1.
To test for a role of Cdk5 activity during extinction of learned fear, mice were implanted with microcannulae into the dorsal hippocampus (i.h.) and trained in the contextual fear conditioning paradigm. Fear conditioning consisted of a 3 min context exposure followed by a single electric foot shock ([…], constant current, 2 s). Subsequently, all mice were subjected to a daily extinction trial (E) on 6 consecutive days (E1-E6). Each extinction trial consisted of a 3 min re-exposure to the conditioned context without presenting the foot-shock again.

[2] = system: MAP kinase signaling pathway; test: MAP kinase signaling pathway in hippocampus after injection; assay type: in vivo, mice; conditions: 50 ng into hippocampus
Experimental: (§2) In agreement with previous data the recovery of the fear response is rarely complete and may indicate that unlearning and new learning may coexist during extinction^29 30. […] In contrast, when butyrolactone I (50 ng) was administered 3 h after E1, freezing behavior was indistinguishable between butyrolactone I- and vehicle-injected mice (FIG. 1f). We estimated that the employed concentrations of butryrolactone I and roscovitine permit a specific inhibition of Cdk5. However high levels of those drugs may also affect Erk-1/2 kinases^31. […] Moreover, freezing behavior is not generally affected.

PAK-1 = test: Immunoblot of PAK-1, PAK-1T212 and PAK-1T423 in hippocampal membrane and cytosolic fractions; assay type: in vivo, mice
Experimental: (§3) Immunoblot analysis: Immunoblot analysis was performed as described before^19. The antibody detecting pPAK-1Thr212 was used in a 1:250 dilution.
(§4) Anti-PAK-1 was from Santa Cruz (Santa Cruz, Calif.). All other antibodies were used in a 1:1000 dilution. pPAK-1Thr423 (Cell Signaling, Danvers, Mass.) synaptophysin (Sigma, St. Louis, Mo.), GAPDH and Rac-1 were from Upstate (Lake Placid, N.Y.), Cdk5 (J3) and p35 (C-19) were from Santa Cruz.
First, we measured PAK-1 phosphorylation at threonine 212 during extinction because this site is phosphorylated by p35/Cdk5^33. […] We also analyzed the activity of PAK-1 using a phospho-T423 antibody against PAK-1^37 in hippocampal lysates prepared from naïve mice and from mice 0.5 h after E1 or E3 by immunoblotting. We detected a significant increase in membrane associated PAK-1Thr423 levels after E3, when compared to E1 (FIG. 4b).
(§5) Next, we set out experiments to determine if the regulation of PAK-1 activity during extinction depended on the activities of Rac-1 and Cdk5/p35. To this end, lysates prepared from mice that were injected with a Rac-1 inhibitor or vehicle (as described under FIG. 3c) were analyzed by immunoblot. […] Consistently, PAK-1 levels increased in the cytosol of mice treated with Rac-1 inhibitor.
To investigate the impact of Cdk5/p35 activity on PAK-1 function during extinction, mice were implanted with microcannulae into the lateral ventricles and injected with 50 ng butyrolactone I immediately after E1. Because a single injection of butyrolactone I after E1 was sufficient to facilitate extinction (see FIG. 1d), hippocampal lysates were prepared 0.5 h after E1 and analyzed by immunoblotting using PAK-1 antibodies (FIG. 5a). […] In contrast, PAK-1T423 levels increased in lysates obtained from butyrolactone I injected mice (FIG. 5 b, c).

Mice (Balb/c) [3] = test: Extinction of amygdala-dependent cued fear; assay type: in vivo; conditions: intrahippocampal injection
Experimental: as §1, §2

hippocampal Cdk5 = target: T1, hippocampal Cdk5 (Mus musculus, UniProt P49615); test: Hippocampal Cdk5 activity measured by histone H1 phosphorylation; assay type: in vivo, mice
T1 construct: from tissue; host or cells: hippocampus of Balb/c mice
Experimental: as §2

[4] = system: p35 co-immunoprecipitated with PAK-1; test: Co-immunoprecipitation of PAK-1 and p35 from hippocampal lysates; assay type: in vivo, mice; conditions: Rac-1 inhibitor icv; 0.5 h after E3
Experimental: Membrane and cytosolic fractions were prepared form the hippocampus of mice 0.5 h after exposure to E1, E3 or from naïve animals and analyzed for the levels of the Cdk5 substrate PAK-1 by immunoblotting. […] In the cytosolic fraction pPAK-1T423 levels decreased after E1 when compared to naïve mice but increased back to baseline levels after E3. c. Hippocampal cytosolic and membrane fractions were prepared on E3 0.5 h after mice were injected (icv) with either vehicle or Rac-1 inhibitor. […] The same lysates as described under (c) were used to immunoprecipitate PAK-1. An HA antibody served a control for unspecific binding of proteins to the proteinA agarose beads. The precipitates were immunoblotted with antibodies against PAK-1 and p35. […] Error bars indicate S.E.M.
as §5

p35/Cdk5 = test: Immunoblot of p35/Cdk5 in hippocampal membrane and cytosolic fractions; assay type: in vivo, mice; conditions: icv 10 μg/μl after E1-E3, fractions 0.5 h after E3
Experimental: as §3, §4
To this end, microcannuale were implanted into the lateral ventricles of mice that were subsequently trained by contextual fear conditioning and exposed to our extinction paradigm. Immediately after E1-E3 mice were injected with a Rac-1 inhibitor^35 (NSC23760; 10 μg/μl) or vehicle. Hippocampal membrane and cytosolic fractions were prepared 0.5 h after E3 and analyzed by immunoblot.

[5] = system: Rac1 interaction with Rac1-specific GEFs TrioN, GEF-H1 and Tiam1; conditions: Gao et al (2001) J. Biol. Chem. 276 47530; cited from earlier work
[6] = 50 ng immediately after E1, fractions 0.5 h later
[7] = 50 ng immediately after E1, fractions 0.5 h later, listed as Butyrolactone I
[8] = Rac-1 inhibitor icv, 0.5 h after E3, cytosolic fraction
[9] = Rac-1 inhibitor icv, 0.5 h after E3, membrane fraction

T1 sequence (P49615 whole entry): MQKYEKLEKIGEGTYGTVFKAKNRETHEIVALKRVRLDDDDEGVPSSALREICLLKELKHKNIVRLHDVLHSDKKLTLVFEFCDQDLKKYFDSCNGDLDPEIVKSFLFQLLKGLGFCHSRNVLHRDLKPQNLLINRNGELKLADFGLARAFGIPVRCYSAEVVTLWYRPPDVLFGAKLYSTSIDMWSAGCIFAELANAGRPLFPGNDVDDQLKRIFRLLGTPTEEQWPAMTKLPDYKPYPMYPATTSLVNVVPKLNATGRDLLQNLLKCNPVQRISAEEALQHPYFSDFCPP
T1 sequence (P61809 2-307 partner limits assumed): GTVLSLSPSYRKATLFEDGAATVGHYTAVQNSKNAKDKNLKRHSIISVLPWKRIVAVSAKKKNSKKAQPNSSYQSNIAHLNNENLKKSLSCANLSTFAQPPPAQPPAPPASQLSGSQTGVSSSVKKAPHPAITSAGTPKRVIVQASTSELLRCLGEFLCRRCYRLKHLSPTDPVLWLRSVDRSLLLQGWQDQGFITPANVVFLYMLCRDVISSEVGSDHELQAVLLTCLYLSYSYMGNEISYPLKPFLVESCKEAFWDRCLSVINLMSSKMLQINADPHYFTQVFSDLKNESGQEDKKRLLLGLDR

CC[C@H](CO)Nc1nc(NCc2ccccc2)c2ncn(C(C)C)c2n1 [roscovitine]
freezing behavior vs. vehicle group (Mice (Balb/c) [1]; roscovitine i.h. 50 ng into dorsal hippocampus immediately after E1-E3): reduced freezing behavior

COC(=O)[C@@]1(Cc2ccc(O)c(CC=C(C)C)c2)OC(=O)C(O)=C1c1ccc(O)cc1 [butyrolactone I]
effect on MAP kinase signaling pathway [2]: did not affect the MAP kinase signaling pathway
PAK-1T212 levels in the cytosolic fraction vs. vehicle (PAK-1; [6]): significantly reduced
PAK-1T212 levels in the membrane fraction vs. vehicle (PAK-1; [6]): reduced
distribution of total PAK-1 between membrane and cytosol vs. vehicle (PAK-1; [6]): re-distribution of total PAK-1 from the membrane to the cytosol
PAK-1T212 levels in the cytosolic fraction vs. vehicle (PAK-1; [7]): decreased
PAK-1T212 levels in the membrane fraction vs. vehicle (PAK-1; [7]): decreased
distribution of total PAK-1 between membrane and cytosol vs. vehicle (PAK-1; 50 ng immediately after E1, fractions 0.5 h later, listed as butyrolactone): significant re-distribution of PAK-1 from the membrane to the cytosol
PAK-1T423 levels vs. vehicle (PAK-1; 50 ng immediately after E1, fractions 0.5 h later, membrane fraction (FIG. 5c)): significantly increased
extinction of amygdala-dependent cued fear (Mice (Balb/c) [3]): did not affect extinction of amygdala-dependent cued fear
hippocampal Cdk5 activity (histone H1 phosphorylation) (hippocampal Cdk5; 12.5 ng i.h.): did not reduce hippocampal Cdk5 activity
hippocampal Cdk5 activity (histone H1 phosphorylation) (hippocampal Cdk5; 25 ng i.h.): did not reduce hippocampal Cdk5 activity
freezing behavior / extinction vs. vehicle group (Mice (Balb/c) [1]; 12.5 ng i.h. after E1-E3, listed as butyrolactone 1): no significant effect on the reduction of freezing behavior
freezing behavior / extinction vs. vehicle group (Mice (Balb/c) [1]; 25 ng i.h. after E1-E3): Extinction was similar in vehicle and butyrolactone I injected mice
freezing behavior / extinction vs. vehicle group (Mice (Balb/c) [1]; 25 ng i.h. after E1-E3, listed as butyrolactone 1): no significant effect on the reduction of freezing behavior
freezing behavior / extinction vs. vehicle group (Mice (Balb/c) [1]; 50 ng i.h. 3 h after E1): indistinguishable
freezing behavior / extinction vs. vehicle group (Mice (Balb/c) [1]; 50 ng i.h. 3 h after E1, listed as butyrolacone I): no significant effect on extinction
freezing behavior vs. vehicle group (Mice (Balb/c) [1]; 50 ng i.h. immediately after E1-E3): reduced freezing behavior on E2 and E3
freezing behavior vs. vehicle group (Mice (Balb/c) [1]; 50 ng i.h. immediately after E1-E3, listed as butyrolactone 1): significantly reduced freezing behavior on E2 and E3
freezing behavior vs. vehicle group (Mice (Balb/c) [1]; 50 ng injected 1 h after E1): significant reduction of freezing behavior on E2
reinstatement of freezing behavior by reminder shock procedure (Mice (Balb/c) [1]; after 50 ng i.h. following E1-E3): able to reinstate freezing behavior
freezing behavior during the extinction trial (Mice (Balb/c) [1]; intrahippocampal injection 15 min before extinction trial 1 or 2): did not affect freezing behavior during the extinction trial
freezing behavior vs. vehicle group (Mice (Balb/c) [1]; single injection i.h. 50 ng immediately after E1): significantly diminished freezing behavior on the subsequent extinction trials
freezing behavior vs. vehicle group (Mice (Balb/c) [1]; single injection i.h. 50 ng immediately after E1, listed as butyrolactone): significant reduction of freezing behavior on E2

CCN(CC)CCCC(C)Nc1nc(C)cc(Nc2ccc3nc(C)cc(N)c3c2)n1 (stereo not drawn) [NSC23760]
PAK-1 levels in the cytosol vs. vehicle (PAK-1; [8]): increased
cytosolic PAK-1T212 levels vs. vehicle (PAK-1; [8]): decreased
membrane associated PAK-1T212 levels vs. vehicle (PAK-1; [9]): dramatic reduction; also recorded: significant reduction
membrane associated PAK-1 levels vs. vehicle (PAK-1; [9]): dramatic reduction; also recorded: significant reduction
amount of p35 co-immunoprecipitated with PAK-1 vs. vehicle [4]: reduced amount of p35 co-immunoprecipitated with PAK-1; also recorded: Much less p35 co-immunoprecipitated with PAK-1
freezing behavior vs. vehicle group (Mice (Balb/c) [1]; icv 10 μg/μl immediately after E1-E3): significant reduction of freezing behavior; also recorded: reduced freezing
membrane associated p35 and Cdk5 levels / distribution vs. vehicle (p35/Cdk5): dramatic redistribution of membrane associated p35 and Cdk5 to the cytosol
membrane associated p35 and Cdk5 levels / distribution vs. vehicle (p35/Cdk5; listed as Rac-1 inhibitor): significant reduction of membrane-associated Cdk5/p35

MVDGKPVNLGLWDTAG [Rac1 Inhibitor W56]
inhibition of Rac1 interaction with Rac1-specific GEFs [5]: selectively inhibits
